# Reference: US4439426A, “Semisynthetic macrolidic antibiotics, intermediate compounds for their preparation and related pharmaceutical compositions containing them” (priority 1981, dated 1984)
# Legend:
# [1] = system: Micrococcus luteus ATCC 15957 LRP 193; test: Bacteriostatic power in solid medium (MIC); format: cell-based; conditions: Micrococcus luteus, ATCC15957, read-out: Minimum inhibiting concentration
# Summary of the method: (§1)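 Growth inhibition endpoint, expressed as MIC, on Gram-negative and Gram-positive stocks grown aerobically or anaerobically.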
# [2] = system: Micrococcus luteus ATCC 9341 LRP 6; test: Bacteriostatic power in solid medium (MIC); format: cell-based; conditions: Micrococcus luteus, ATCC9341, read-out: Minimum inhibiting concentration
# Summary of the method: as §1
# [3] = system: Mycoplasma hominis I ATCC 14027 LRP 211; test: Bacteriostatic power in solid medium (MIC); format: cell-based; conditions: Metamycoplasma hominis, ATCC14027, read-out: Minimum inhibiting concentration
# Summary of the method: as §1
# Escherichia coli LRP 50 = test: Bacteriostatic power in solid medium (MIC); format: cell-based; conditions: Escherichia coli, LRP50, read-out: Minimum inhibiting concentration
# Summary of the method: as §1
# [4] = system: Acholeplasma laidlawii ATCC 23206 LRP 204; test: Bacteriostatic power in solid medium (MIC); format: cell-based; conditions: Acholeplasma laidlawii, ATCC23206; solid medium; read-out: Minimum inhibiting concentration
# Summary of the method: as §1
# [5] = system: Streptococcus pyogenes ATCC 8668 LRP 34; test: Bacteriostatic power in solid medium (MIC); format: cell-based; conditions: Streptococcus pyogenes, ATCC8668, read-out: Minimum inhibiting concentration
# Summary of the method: as §1
# Shigella sonnei LRP 5 = test: Bacteriostatic power in solid medium (MIC); format: cell-based; conditions: LRP5, read-out: Minimum inhibiting concentration
# Summary of the method: as §1
# [6] = system: Neisseria gonorrhoeae ATCC 19424 LRP 214; test: Bacteriostatic power in solid medium (MIC); format: cell-based; conditions: Neisseria gonorrhoeae, ATCC19424, read-out: Minimum inhibiting concentration
# Summary of the method: as §1
# [7] = system: Staphylococcus aureus ATCC 14154 LRP 78; test: Bacteriostatic power in solid medium (MIC); format: cell-based; conditions: Staphylococcus aureus, ATCC14154, read-out: Minimum inhibiting concentration
# Summary of the method: as §1
# [8] = system: Pseudomonas aeruginosa LRP 9; test: Bacteriostatic power in solid medium (MIC); format: cell-based; conditions: Pseudomonas aeruginosa, LRP9, read-out: Minimum inhibiting concentration
# Summary of the method: as §1
# [9] = system: Streptococcus pneumoniae ATCC 6303 LRP 35; test: Bacteriostatic power in solid medium (MIC); format: cell-based; conditions: Streptococcus pneumoniae, ATCC6303, read-out: Minimum inhibiting concentration
# Summary of the method: as §1
# [10] = system: Klelsiella pneumoniae LRP 54; test: Bacteriostatic power in solid medium (MIC); format: cell-based; conditions: read-out: Minimum inhibiting concentration
# Summary of the method: as §1
# Bacillus subtilis LRP 25 = test: Bacteriostatic power in solid medium (MIC); format: cell-based; conditions: Bacillus subtilis, LRP25, read-out: Minimum inhibiting concentration
# Summary of the method: as §1
# [11] = system: Streptococcus pyogenes ATCC 8668 LRP 197; test: Bacteriostatic power in solid medium (MIC); format: cell-based; conditions: Streptococcus pyogenes, ATCC8668, read-out: Minimum inhibiting concentration
# Summary of the method: as §1
# [12] = system: Staphylococcus aureus ATCC 6538P LRP 14; test: Bacteriostatic power in solid medium (MIC); format: cell-based; conditions: Staphylococcus aureus, ATCC6538P, read-out: Minimum inhibiting concentration
# Summary of the method: as §1
# [13] = system: Bacteroides fragilis ATCC 23745 LRP 205; test: Bacteriostatic power in solid medium (MIC); format: cell-based; conditions: Bacteroides fragilis, ATCC23745, read-out: Minimum inhibiting concentration
# Summary of the method: as §1
# [14] = system: Staphylococcus aureus ATCC 6538P LRP 39; test: Bacteriostatic power in solid medium (MIC); format: cell-based; conditions: Staphylococcus aureus, ATCC6538P, read-out: Minimum inhibiting concentration
# Summary of the method: as §1
# [15] = system: Proteus vulgaris ATCC 6380 LRP 13; test: Bacteriostatic power in solid medium (MIC); format: cell-based; conditions: Proteus vulgaris, ATCC6380, read-out: Minimum inhibiting concentration
# Summary of the method: as §1
# [16] = system: Corynebacterium diphteriae LRP 24; test: Bacteriostatic power in solid medium (MIC); format: cell-based; conditions: Corynebacterium, LRP24, read-out: Minimum inhibiting concentration
# Summary of the method: as §1
# [17] = system: Streptococcus pneumoniae ATCC 6303 LRP 53; test: Bacteriostatic power in solid medium (MIC); format: cell-based; conditions: Streptococcus pneumoniae, ATCC6303, read-out: Minimum inhibiting concentration
# Summary of the method: as §1
# [18] = system: Streptococcus faecalis subsp. zymogenes ATCC 12958 LRP 61; test: Bacteriostatic power in solid medium (MIC); format: cell-based; conditions: Enterococcus faecalis, ATCC12958, read-out: Minimum inhibiting concentration
# Summary of the method: as §1
# [19] = system: Streptococcus faecalis LRP 7; test: Bacteriostatic power in solid medium (MIC); format: cell-based; conditions: Enterococcus faecalis, LRP7, read-out: Minimum inhibiting concentration
# Summary of the method: as §1
# [20] = system: Haemophilus influenzae ATCC 19418 LRP 213; test: Bacteriostatic power in solid medium (MIC); format: cell-based; conditions: Haemophilus influenzae, ATCC19418, read-out: Minimum inhibiting concentration
# Summary of the method: as §1
# [21] = system: Streptococcus pneumoniae ATCC 6303 LRP 52; test: Bacteriostatic power in solid medium (MIC); format: cell-based; conditions: Streptococcus pneumoniae, ATCC6303, read-out: Minimum inhibiting concentration
# Summary of the method: as §1
# [22] = system: Fusobacteriumnecrophroum ATCC 27852 LRP 210; test: Bacteriostatic power in solid medium (MIC); format: cell-based; conditions: read-out: Minimum inhibiting concentration
# Summary of the method: as §1
# [23] = Serum concentrations in the rat after oral administration; format: in vivo; conditions: rat, in vivo, po, 100 mg/kg
# Experimental: administration of 100 mg/kg per os. The values, at the
# several sampling times, correspond to mcg of product per ml of serum*.
# [24] = system: Streptococcus pyogenes ATCC 8668 LRP 34; test: Bacteriostatic power in liquid medium (MIC); format: cell-based; conditions: Streptococcus pyogenes, ATCC8668, read-out: Minimum inhibiting concentration
# Summary of the method: as §1
# [25] = system: Streptococcus faecalis subs. zymogenes ATCC 12958 LRP 61; test: Bacteriostatic power in liquid medium (MIC); format: cell-based; conditions: Enterococcus faecalis, ATCC12958, read-out: Minimum inhibiting concentration
# Summary of the method: as §1
# [26] = system: Streptococcus pneumoniae ATCC 6303 LRP 35; test: Bacteriostatic power in liquid medium (MIC); format: cell-based; conditions: Streptococcus pneumoniae, ATCC6303, read-out: Minimum inhibiting concentration
# Summary of the method: as §1
# [27] = system: Corynebacterium diphteriae LRP 24; test: Bacteriostatic power in liquid medium (MIC); format: cell-based; conditions: Corynebacterium, LRP24, read-out: Minimum inhibiting concentration
# Summary of the method: as §1
# [28] = system: Staphylococcus aureus ATCC 6538 P LRP 39; test: Bacteriostatic power in liquid medium (MIC); format: cell-based; conditions: Staphylococcus aureus, ATCC6538, read-out: Minimum inhibiting concentration
# Summary of the method: as §1
# Salmonella typhy LRP 8 = test: microbe, parasite or virus in culture; format: cell-based; conditions: LRP8, solid medium, read-out: Minimum inhibiting concentration
# Summary of the method: as §1
# [29] = system: Clostridium perfrigens ATCC 3624 LRP 206; test: microbe, parasite or virus in culture; format: cell-based; conditions: ATCC3624, solid medium, anaerobic, read-out: Minimum inhibiting concentration
# Summary of the method: as §1
# [30] = system: Streptococcus pyogenes ATCC 8668 LRP 34; test: Minimum bactericidal concentration (MBC); format: cell-based; conditions: Streptococcus pyogenes, ATCC8668, read-out: Minimum bactericidal concentration (MBC)
# Description: (§2) the bacterial power, expressed as the minimum bactericidal power (MBC) against some Gram positive aerobic stocks (table 5).
# [31] = system: Streptococcus pneumoniae ATCC 6303 LRP 35; test: Minimum bactericidal concentration (MBC); format: cell-based; conditions: Streptococcus pneumoniae, ATCC6303, read-out: Minimum bactericidal concentration (MBC)
# Description: as §2
# [32] = system: Corynebacterium diphteriae LRP 24; test: Minimum bactericidal concentration (MBC); format: cell-based; conditions: Corynebacterium, LRP24, read-out: Minimum bactericidal concentration (MBC)
# Description: as §2
# [33] = system: Streptococcus faecalis subs. zymogenes LRP 61; test: Minimum bactericidal concentration (MBC); format: cell-based; conditions: Enterococcus faecalis, read-out: Minimum bactericidal concentration (MBC)
# Description: as §2
# [34] = system: Staphylococcus aureus ATCC 6538 P LRP 39; test: Minimum bactericidal concentration (MBC); format: cell-based; conditions: Staphylococcus aureus, ATCC6538, read-out: Minimum bactericidal concentration (MBC)
# Description: as §2
# [35] = Stability in acidic environment at 25° C. (half-life of initial microbiological activity); format: physicochemical; conditions: aqueous solution
# Experimental: Stability in acidic environnment at 25° C. of the novel
# Note: t 1/2 represents the time for reducing to one half the initial powe
# of the antibiotic determined by microbiological method through diffusion
# on a plate using the test stock Microccocus luteus (Sarcina lutea) ATCC
compound,measurement,setting,value
"CC[C@H]1OC(=O)[C@H](C)[C@@H](O[C@H]2C[C@@](C)(OC)[C@@H](O)[C@H](C)O2)[C@H](C)[C@@H](O[C@@H]2O[C@H](C)C[C@H](N(C)C)[C@H]2O)[C@](C)(O)C[C@@H](C)C(=O)[C@H](C)[C@@H](O)[C@]1(C)O [Erythromycin A, reference compound]",MIC,[1],25 µg/mL
same,MIC,[2],6 ng/mL
same,MIC,[3],25 µg/mL
same,MIC,Escherichia coli LRP 50,6.25 µg/mL
same,MIC,[4],0.097 µg/mL
same,MIC,[5],0.012 µg/mL
same,MIC,Shigella sonnei LRP 5,12.5 µg/mL
same,MIC,[6],0.049 µg/mL
same,MIC,[7],25 µg/mL
same,MIC,[8],25 µg/mL
same,MIC,[9],0.012 µg/mL
same,MIC,[10],12.5 µg/mL
same,MIC,Bacillus subtilis LRP 25,0.049 µg/mL
same,MIC,[11],0.012 µg/mL
same,MIC,[12],0.049 µg/mL
same,MIC,[13],0.195 µg/mL
same,MIC,[14],0.049 µg/mL
same,MIC,[15],25 µg/mL
same,MIC,[16],6 ng/mL
same,MIC,[17],0.012 µg/mL
same,MIC,[18],0.097 µg/mL
same,MIC,[19],0.097 µg/mL
same,MIC,[20],3.12 µg/mL
same,MIC,[21],0.012 µg/mL
same,MIC,[22],3.12 µg/mL
same,concentration at 2 h,"[23]; 100 mg/kg per os, 2 hours",1140 ng/mL
same,concentration at 0.5 h,"[23]; Serum concentration, average",478 ng/mL
same,concentration at 1 h,"[23]; Serum concentration, average",534 ng/mL
same,concentration at 4 h,"[23]; Serum concentration, average",262 ng/mL
same,concentration at 6 h,"[23]; Serum concentration, average",165 ng/mL
same,MIC,[24],0.024 µg/mL
same,MIC,[25],0.39 µg/mL
same,MIC,[26],0.024 µg/mL
same,MIC,[27],0.012 µg/mL
same,MIC,[28],0.097 µg/mL
same,MIC,Salmonella typhy LRP 8,12.5 µg/mL
same,MIC,[29],1.56 µg/mL
same,MBC,[30],0.39 µg/mL
same,MBC,[31],0.097 µg/mL
same,MBC,[32],0.049 µg/mL
same,MBC,[33],6.25 µg/mL
same,MBC,[34],1.56 µg/mL
same,half-life,[35]; pH 2,2 min
same,half-life,[35]; pH 3,6 min
